Measurements: patent US11986532B2 (Arvinas Operations, Inc., priority 2021, dated 2024)
Read-outs that look alike come from different tables or passages of the source.

Target: T1, BCL6 (Homo sapiens, UniProt P41182)
T1 construct: endogenous in cells; host or cells: T47D breast cancer epithelial cells
Test: Immunofluorescence protocol for high content imaging of BCL6 (degradation) in T47D cells, 3 days compound treatment
Type: cell-based
Conditions: for DC50: read-out: Mean DC50 (nM)* category; for Dmax: read-out: Mean Dmax (%)** category
Summary of the method: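 Cells are seeded to reach ~70-90% confluence at endpoint, then dosed next day with compound at a final top concentration of 0.1 or 1 μM (11 points, 3-fold). After 3 days, BCL6 is detected by immunofluorescence and quantified by high-content imaging.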

[1] = T47D cells, 3 days compound treatment

DC50 [1]	Dmax [1]	Compound	Dmax (T47D)	DC50
		CNC(=O)COc1cc2cc(Nc3nc(N4CCC(O[C@H]5C[C@H](N6CC7(CN(c8ccc9c(c8C)C(=O)N(C8CCC(=O)NC8=O)C9=O)C7)C6)C5)CC4)ncc3Cl)ccc2n(C(C)C)c1=O (stereo partly shown) [Compound 420, 2-({6-[(5-chloro-2-{4-[(1r,3r)-3-{6-[2-(2,6-dioxopiperidin-3-yl)-4-methyl-1,3-dioxo-2,3-dihydro-1H-isoindol-5-yl]-2,6-diazaspiro[3.3]heptan-2-yl}cyclobutoxy]piperidin-1-yl}pyrimidin-4-yl)amino]-2-oxo-1-(propan-2-yl)-1,2-dihydroquinolin-3-yl}oxy)-N-methylacetamide]	≥ 70%	< 10 nM
< 10 nM	< 50%	CNC(=O)COc1cc2cc(Nc3nc(N4CCC(OC5CN([C@H]6CC[C@@H](c7ccc8c(c7Cl)CN(C7CCC(=O)NC7=O)C8=O)CC6)C5)CC4)ncc3Cl)ccc2n(C(C)C)c1=O (stereo partly shown) [Compound 186, 2-{[6-({5-chloro-2-[4-({1-[(1s,4s)-4-[4-chloro-2-(2,6-dioxopiperidin-3-yl)-1-oxo-2,3-dihydro-1H-isoindol-5-yl]cyclohexyl]azetidin-3-yl}oxy)piperidin-1-yl]pyrimidin-4-yl}amino)-2-oxo-1-(propan-2-yl)-1,2-dihydroquinolin-3-yl]oxy}-N-methylacetamide]		
		CNC(=O)COc1cc2cc(Nc3nc(N4CCC(O[C@H]5C[C@H](N6CC7(CCN7c7cccc8c7C(=O)N(C7CCC(=O)NC7=O)C8)C6)C5)CC4)ncc3Cl)ccc2n(C(C)C)c1=O (stereo partly shown) [Compound 310, 2-({6-[(5-chloro-2-{4-[(1r,3r)-3-{1-[2-(2,6-dioxopiperidin-3-yl)-3-oxo-2,3-dihydro-1H-isoindol-4-yl]-1,6-diazaspiro[3.3]heptan-6-yl}cyclobutoxy]piperidin-1-yl}pyrimidin-4-yl)amino]-2-oxo-1-(propan-2-yl)-1,2-dihydroquinolin-3-yl}oxy)-N-methylacetamide]	50 to 70%	< 10 nM
10 to 50 nM	50 to 70%	CNC(=O)COc1cc2cc(Nc3nc(N4CCC(OC5CCC6(CC5)CN(c5cccc7c5C(=O)N(C5CCC(=O)NC5=O)C7)C6)CC4)ncc3Cl)ccc2n(C(C)C)c1=O (stereo not shown) [Compound 70, 2-{[6-({5-chloro-2-[4-({2-[2-(2,6-dioxopiperidin-3-yl)-3-oxo-2,3-dihydro-1H-isoindol-4-yl]-2-azaspiro[3.5]nonan-7-yl}oxy)piperidin-1-yl]pyrimidin-4-yl}amino)-2-oxo-1-(propan-2-yl)-1,2-dihydroquinolin-3-yl]oxy}-N-methylacetamide]		
		CNC(=O)COc1cc2cc(Nc3nc(N4CCC(O[C@H]5C[C@H](N6C7CCC6CN(c6ccc8c(c6F)CN(C6CCC(=O)NC6=O)C8=O)C7)C5)CC4)ncc3Cl)ccc2n(C(C)C)c1=O (stereo partly shown) [Compound 406, 2-({6-[(5-chloro-2-{4-[(1r,3r)-3-{3-[2-(2,6-dioxopiperidin-3-yl)-4-fluoro-1-oxo-2,3-dihydro-1H-isoindol-5-yl]-3,8-diazabicyclo [3.2.1]octan-8-yl}cyclobutoxy]piperidin-1-yl}pyrimidin-4-yl)amino]-2-oxo-1-(propan-2-yl)-1,2-dihydroquinolin-3-yl}oxy)-N-methylacetamide]	50 to 70%	< 10 nM
		CNC(=O)COc1cc2cc(Nc3nc(N4CCC(O[C@H]5C[C@H](N6CCC7(CCCN(c8ccc9c(c8)C(=O)N(C8CCC(=O)NC8=O)C9=O)C7)C6)C5)CC4)ncc3Cl)ccc2n(C(C)C)c1=O (stereo partly shown) [Compound 359, 2-({6-[(5-chloro-2-{4-[(1r,3r)-3-{7-[2-(2,6-dioxopiperidin-3-yl)-1,3-dioxo-2,3-dihydro-1H-isoindol-5-yl]-2,7-diazaspiro [4.5]decan-2-yl}cyclobutoxy]piperidin-1-yl}pyrimidin-4-yl)amino]-2-oxo-1-(propan-2-yl)-1,2-dihydroquinolin-3-yl}oxy)-N-methylacetamide]	50 to 70%	10 to 50 nM
		CNC(=O)COc1cc2cc(Nc3nc(N4CCC(O[C@H]5C[C@H](N6CCC7(c8ccc9c(c8F)CN(C8CCC(=O)NC8=O)C9=O)CC7C6)C5)CC4)ncc3Cl)ccc2n(C(C)C)c1=O (stereo partly shown) [Compound 283, 2-({6-[(5-chloro-2-{4-[(1r,3r)-3-{6-[2-(2,6-dioxopiperidin-3-yl)-4-fluoro-1-oxo-2,3-dihydro-1H-isoindol-5-yl]-3-azabicyclo[4.1.0]heptan-3-yl}cyclobutoxy]piperidin-1-yl}pyrimidin-4-yl)amino]-2-oxo-1-(propan-2-yl)-1,2-dihydroquinolin-3-yl}oxy)-N-methylacetamide]	≥ 70%	< 10 nM
		[2H]C([2H])([2H])Oc1c(N2CC3(CCC(OC4CCN(c5ncc(Cl)c(Nc6ccc7c(c6)cc(OCC(=O)NC)c(=O)n7C(C)C)n5)CC4)CC3)C2)ccc2c1CN(C1CCC(=O)NC1=O)C2=O (stereo not shown) [Compound 225, 2-((6-((5-chloro-2-(4-((2-(2-(2,6-dioxopiperidin-3-yl)-4-(methoxy-d3)-1-oxoisoindolin-5-yl)-2-azaspiro[3.5]nonan-7-yl)oxy)piperidin-1-yl)pyrimidin-4-yl)amino)-1-isopropyl-2-oxo-1,2-dihydroquinolin-3-yl)oxy)-N-methylacetamide]	≥ 70%	< 10 nM
		CNC(=O)COc1cc2cc(Nc3nc(N4CCC(O[C@H]5C[C@H](N6C[C@H](C)N(c7ccc8c(c7)C(=O)N(C7CCC(=O)NC7=O)C8=O)[C@@H](C)C6)C5)CC4)ncc3Cl)ccc2n(C(C)C)c1=O (stereo partly drawn) [Compound 246, 2-({6-[(5-chloro-2-{4-[(1r,3r)-3-[(3S,5S)-4-[2-(2,6-dioxopiperidin-3-yl)-1,3-dioxo-2,3-dihydro-1H-isoindol-5-yl]-3,5-dimethylpiperazin-1-yl]cyclobutoxy]piperidin-1-yl}pyrimidin-4-yl)amino]-2-oxo-1-(propan-2-yl)-1,2-dihydroquinolin-3-yl}oxy)-N-methylacetamide]	50 to 70%	< 10 nM
		CNC(=O)COc1cc2cc(Nc3nc(N4CCN(CC5CCN(c6c(F)ccc7c6CN(C6CCC(=O)NC6=O)C7=O)CC5)CC4)ncc3Cl)ccc2n(C(C)C)c1=O (stereo not shown) [Compound 297, 2-{[6-({5-chloro-2-[4-({1-[2-(2,6-dioxopiperidin-3-yl)-5-fluoro-1-oxo-2,3-dihydro-1H-isoindol-4-yl]piperidin-4-yl}methyl)piperazin-1-yl]pyrimidin-4-yl}amino)-2-oxo-1-(propan-2-yl)-1,2-dihydroquinolin-3-yl]oxy}-N-methylacetamide]	50 to 70%	< 10 nM

Compound	DC50 [1]	Dmax [1]	Dmax (T47D)	DC50
CNC(=O)COc1cc2cc(Nc3nc(N4CCC(O[C@H]5C[C@@H](N6CCC(c7ccc8c(c7)C(=O)N(C7CCC(=O)NC7=O)C8=O)CC6)C5)CC4)ncc3Cl)ccc2n(C(C)C)c1=O (stereo partly shown) [Compound 153, 2-({6-[(5-chloro-2-{4-[(1s,3s)-3-{4-[2-(2,6-dioxopiperidin-3-yl)-1,3-dioxo-2,3-dihydro-1H-isoindol-5-yl]piperidin-1-yl}cyclobutoxy]piperidin-1-yl}pyrimidin-4-yl)amino]-2-oxo-1-(propan-2-yl)-1,2-dihydroquinolin-3-yl}oxy)-N-methylacetamide]	50 to 100 nM	< 50%		
